# Test results: article PMC11288129, “Diversely evolved xibalbin variants from remipede venom inhibit potassium channels and activate PKA-II and Erk1/2 signaling” (BMC Biology, 2024)
# How the values were obtained:
# Format in all cases: cell-based
# [1] = test system: PKA-II (phospho-RIIα/β) in rat DRG neurons; assay: High-content imaging of PKA-II activity (pRII) in DRG sensory neurons
# Experimental: (§1) To gauge sensory neuron activity in response to various activating stimuli, including electrical activity, phosphorylation state detection of protein kinase A type II (PKA-II) and MAP kinase Erk1/2 can act as surrogate measurements. Consequently, we tested for increased phosphorylation states in a concentration-dependent manner following exposure to xibalbins. Dissociated DRG neurons were cultured overnight and then exposed to increasing concentrations of the corresponding xibalbins for 5 min and 30 min, respectively. As a positive control, forskolin (Fsk) was also used to induce cAMP synthesis. The activity of PKA-II was monitored by antibodies directed against the phosphorylation site of the inhibitory regulatory subunits RIIα/β, which is exclusively accessible when the catalytic kinase domain is released during kinase activation. For measuring Erk1/2 activity, phospho-sites on Erk1/2 (T202/Y204) were monitored through immunofluorescence, as these sites are phosphorylated during activation. Cellular images were captured using HCI microscopy (Fig. 8A), and the average intensity of each phospho-antibody was quantified (Fig. 8B).
# (§2) Fig. 8 A Representative images of rat DRG neurons stimulated with PBS (Ctrl) and xib1b (0.8 µg/µL). Cells were stained for UCHL1, pRII, pERK1/2, and Hoechst followed by fixation and staining with standard immunocytochemistry protocols. Green-encircled neurons indicate automatically selected objects. Scale bar: 100 µm. B Mean intensities of UCHL1, pRII, and pERK1/2. The same UCHL1 intensities were observed among tested groups. Forskolin (Fsk), an activator of adenylyl cyclase, was used as a positive control. Fsk at 6 µM concentration induced an increase in pRII and pERK1/2 intensities at 5 and 30 min. Number of analyzed cells per replica: 750 ± 200. Eight independent replicas. C–F Concentration responses of xibalbin toxins (0.005 to 0.8 µg/µL) and mean intensities of pRII and pERK1/2 at 5 min and 30 min. G–H Size versus pRII and pErk1/2 intensities of cells treated with 0.8 µg/µL of xib1 and xib13. Small-sized cells were responding to xibalbins. Statistical significance was assessed using one-way ANOVA with Dunnett’s post hoc test. Data represent mean ± S.E.M (standard error of the mean), n = 4, see “Methods” for details and Additional File 6: Table S2 for individual data values
# (§3) Male Sprague Dawley rats (250–400 g, 8–16 weeks old) were obtained from Envigo. Rats were kept in 12 h of light/darkness cycles. All experiments were performed in accordance with the German animal welfare law with permission of the District Government for Nature and Environment, NRW (84–02.05.20.13.045, 4.18.003). Rats were scarified by slow inhalation of CO2 which was followed by decapitation. DRGs were extracted from rats, deheated, pooled, and incubated in Neurobasal A/B27 medium (Invitrogen, #12349–015) supplemented with B-27 (Invitrogen #17504), L-glutamine 1:400, L-glutamate 1:270.3, and penicillin/streptomycin 1:100 containing 0.2 U/mL collagenase P (collagenase P, Roche, #1213857) and incubated for 1 h at 37 °C, 5% CO2. DRGs were dissociated with pasteur pipettes and axon stumps were separated by BSA (Sigma-Aldrich, # A2153-100G) gradient centrifugation (14% BSA, 120 g, 8 min). Cells were resuspended in NBA medium, plated in 96-well imaging plate (Greiner BioOne Sensoplate, Black, #655896) precoated with poly-L-ornithine hydrochloride (0.1 mg/ml Sigma, #P2533)/laminin (5 µg/ml Invitrogen, #23017–015), and incubated overnight at 37 °C, 5% CO2.
# (§4) DRGs were stimulated after overnight incubation. Compounds were prepared as tenfold concentrated stock solutions, diluted in PBS (PAA, cat# H15-002), in v-bottom plates; 50 µL media from culture wells were mixed with the […] stock solutions, and 50 µL added back to the respective wells. Stimulation was performed with automated multichannel pipette and cells were kept in heated block during the stimulation. […]
# [2] = test system: Erk1/2 (T202/Y204) in rat DRG neurons; assay: High-content imaging of pERK1/2 in DRG sensory neurons; details: positive control Fsk 6 µM; 5 and 30 min
# Experimental: as §1, §2, §3, §4
# HEK293T cells = assay: Ca2+ influx induction, Fluo-8 calcium imaging; details: HEK293 cells
# Experimental: We examined the potential of xibalbins in a concentration range of 0.25 to 25 µg/ml regarding their effects on Ca^2+ influx in HEK293 cells, which express calcium channels. […] However, exposure to none of the four xibalbin variants by itself did increase [Ca^2+]i as measured by Fluo-8 calcium imaging assay. Additionally, none of the xibalbin variants modulated forskolin-induced [Ca^2+]i increase (Additional File 7: Figure S5 A). We also evaluated the effect of xibalbins on cAMP synthesis. However, xibalbins had no effect on increasing cAMP synthesis in HEK293 cells or on preventing the forskolin-induced cAMP synthesis (Additional File 7: Figure S5 B).
# Supplementary file 12915_2024_1955_MOESM7_ESM.jpg: Additional file 7: Figure S5. […] A threshold of fluorescence intensity was defined using cells before treatment, all cells above the threshold level were counted. […] For the induction assay (left panel), the luminescence was detected (background, 3 measurements every 5 min) and then the xibalbins (0.25, 2.5, 25 μg/ml) or 5 μM forskolin were added to detect the luminescence (3 measurements/5 min) using a plate reader (Spark, Tecan, Männedorf, Switzerland). For the inhibition assay (right panel), the xibalbin-treated cells were incubated with 5 μM forskolin to detect the luminescence (3 measurements/5 min). […] After 24 h NO was determined in supernatants with the Griess method. […]
smiles,measurement,setting,value
"C=C[C@@]1(C)CC(=O)[C@]2(O)[C@@]3(C)[C@@H](O)CCC(C)(C)[C@@H]3[C@H](O)[C@H](OC(C)=O)[C@@]2(C)O1 [Forskolin, reference compound]",pRII intensity,"[1]; positive control Fsk 6 µM, 5 and 30 min",increase
same,pRII response by neuron size,[1]; xibalbins 0.8 µg/µL,activated both small and large-sized sensory neurons
same,pERK1/2 intensity,[2],increase
same,increase of [Ca2+]i by positive control,HEK293T cells,increased [Ca^2+]i
